Test results published in US8530388B2, “Cyclopentadione derived herbicides” (Syngenta Limited, priority 2009, dated 2013).

Assays:
Assay type in all cases: in vivo
[1] = test system: Alopecurus myosuroides (ALOMY); assay: Pre-emergence herbicidal activity, glasshouse pot test; conditions: 312 h, Rate 250 g/ha, sprayed one day after sowing, evaluated after 13 days, 100=total damage to plant, 0=no damage to plant
Method: (§1) Seeds of a variety of test species were sown in standard soil in pots. After cultivation for one day (pre-emergence) or after 8 days cultivation (post-emergence) under controlled conditions in a glasshouse (at 24/16° C., day/night; 14 hours light; 65% humidity), the plants were sprayed with an aqueous spray solution derived from the formulation of the technical active ingredient in acetone/water (50:50) solution containing 0.5% Tween 20 (polyoxyethelyene sorbitan monolaurate, CAS RN 9005-64-5). The test plants were then grown in a glasshouse under controlled conditions in a glasshouse (at 24/16° C., day/night; 14 hours light; 65% humidity) and watered twice daily. After 13 days for pre and post-emergence, the test was evaluated (100=total damage to plant; 0=no damage to plant). Test plants: Setaria faberi (SETFA), Lolium perenne (LOLPE), Alopecurus myosuroides (ALOMY), Echinochloa crus-galli (ECHCG), and Avena fatua (AVEFA) Pre-Emergence Activity

[2] = test system: Echinochloa crus-galli (ECHCG); assay: as above; conditions: 312 h, Rate 250 g/ha, sprayed one day after sowing, evaluated after 13 days, 100=total damage to plant, 0=no damage to plant
Method: as §1

Avena fatua (AVEFA) [3] = assay: as above; conditions: 312 h, Rate 250 g/ha, sprayed one day after sowing, evaluated after 13 days, 100=total damage to plant, 0=no damage to plant
Method: as §1

[4] = test system: Alopecurus myosuroides (ALOMY); assay: Post-emergence herbicidal activity, glasshouse pot test; conditions: 312 h, rate 250 g/ha, evaluated after 13 days, read-out: Post-emergence activity, ALOMY (100=total damage to plant; 0=no damage to plant)
Method: as §1, with “plant).” for “plant). Test plants: Setaria faberi (SETFA), Lolium perenne (LOLPE), Alopecurus myosuroides (ALOMY), Echinochloa crus-galli (ECHCG), and Avena fatua (AVEFA) Pre-Emergence Activity”
(§2) Test plants: Setaria faberi (SETFA), Lolium perenne (LOLPE), Alopecurus myosuroides (ALOMY), Echinochloa crus-galli (ECHCG), and Avena fatua (AVEFA)

[5] = test system: Echinochloa crus-galli (ECHCG); assay: as above; conditions: 312 h, rate 250 g/ha, evaluated after 13 days, read-out: Post-emergence activity, ECHCG (100=total damage to plant; 0=no damage to plant)
Method: as §1, with “plant).” for “plant). Test plants: Setaria faberi (SETFA), Lolium perenne (LOLPE), Alopecurus myosuroides (ALOMY), Echinochloa crus-galli (ECHCG), and Avena fatua (AVEFA) Pre-Emergence Activity”
as §2

Avena fatua (AVEFA) [6] = assay: as above; conditions: 312 h, rate 250 g/ha, evaluated after 13 days, read-out: Post-emergence activity, AVEFA (100=total damage to plant; 0=no damage to plant)
Method: as §1, with “plant).” for “plant). Test plants: Setaria faberi (SETFA), Lolium perenne (LOLPE), Alopecurus myosuroides (ALOMY), Echinochloa crus-galli (ECHCG), and Avena fatua (AVEFA) Pre-Emergence Activity”
as §2

Lolium perenne (LOLPE) [7] = assay: Pre-emergence herbicidal activity, glasshouse pot test; conditions: 312 h, Rate 250 g/ha, sprayed one day after sowing, evaluated after 13 days, 100=total damage to plant, 0=no damage to plant
Method: as §1

Lolium perenne (LOLPE) [8] = assay: Post-emergence herbicidal activity, glasshouse pot test; conditions: 312 h, rate 250 g/ha, evaluated after 13 days, read-out: Post-emergence activity, LOLPE (100=total damage to plant; 0=no damage to plant)
Method: as §1, with “plant).” for “plant). Test plants: Setaria faberi (SETFA), Lolium perenne (LOLPE), Alopecurus myosuroides (ALOMY), Echinochloa crus-galli (ECHCG), and Avena fatua (AVEFA) Pre-Emergence Activity”
as §2

Row | SMILES | pest or weed control at 250 g/ha [1] [%] | pest or weed control at 250 g/ha [2] [%] | pest or weed control at 250 g/ha (Avena fatua (AVEFA) [3]) [%] | pest or weed control at 250 g/ha [4] [%] | pest or weed control at 250 g/ha [5] [%] | pest or weed control at 250 g/ha (Avena fatua (AVEFA) [6]) [%] | pest or weed control at 250 g/ha (Lolium perenne (LOLPE) [7]) [%] | pest or weed control at 250 g/ha (Lolium perenne (LOLPE) [8]) [%]
1 | CCc1ccc(-c2ccc(Cl)cc2)cc1C1=C(O)CCC1=O [Compound T-1, 2-(4′-chloro-4-ethylbiphen-3-yl)-1,3-cyclopentanedione] | 90 | 100 | 70 | 80 | 100 | 90 |  | 
2 | CCc1ccc(-c2ccc(Cl)cc2)cc1C1=C(O)C2CSCC2C1=O (stereo not shown) [Compound T-2, 5-(4′-Chloro-4-ethylbiphenyl-3-yl)-tetrahydrocyclopenta[c]thiophene-4,6-dione] | 0 | 70 | 0 | 20 | 100 | 80 | 0 | 0
3 | CCc1ccc(-c2ccc(Cl)cc2F)cc1C1=C(O)CCC1=O [Compound T-3, 2-(4′-chloro-4-ethyl-2′-fluorobiphenyl-3-yl)cyclopentane-1,3-dione] | 30 | 100 | 60 | 30 | 100 | 90 | 90 | 40
4 | CCc1ccc(-c2ccc(Cl)cc2C)cc1C1=C(O)CCC1=O [Compound T-4] | 50 | 50 | 10 | 50 | 70 | 0 | 60 | 30
5 | CCc1ccc(-c2ccc(Cl)c(Cl)c2)cc1C1=C(O)CCC1=O [Compound T-5] | 20 | 20 | 0 | 30 | 70 | 20 | 20 | 50
6 | CCc1ccc(-c2ccc(Cl)c(OC)c2)cc1C1=C(O)CCC1=O [Compound T-6] | 0 | 60 | 0 | 50 | 90 | 10 | 30 | 60
7 | CCc1ccc(-c2ccc3ccccc3c2)cc1C1=C(O)CCC1=O [Compound T-7] | 0 | 20 | 0 | 10 | 20 | 10 | 10 | 30
8 | CCc1ccc(-c2ccc(Cl)c(C(F)(F)F)c2)cc1C1=C(O)CCC1=O [Compound T-8] | 30 | 60 | 0 | 50 | 100 | 30 | 60 | 60
9 | CCc1ccc(-c2ccc(Cl)c(F)c2)cc1C1=C(O)CCC1=O [Compound T-9] | 60 | 90 | 50 | 30 | 100 | 60 | 80 | 60
